Measurements taken from ChEMBL document CHEMBL5518187, “EGCG-like non-competitive inhibitor of DYRK1A rescues cognitive defect in a down syndrome model” (Eur J Med Chem, 2024).
Each block holds one compound with its values, some of them ahead of it. The source made the active and inactive calls. The rule behind the calls is not given here.

Assays:
[1] = biological target: Dual specificity tyrosine-phosphorylation-regulated kinase 1A (Homo sapiens, UniProt Q13627); experiment: Inhibition of DYRK1A (unknown origin) using KISGRLSPIMTEQ as substrate incubated for 30 mins in presence of ATP by UFLC-based fluorimetric analysis
[2] = biological target: Dual specificity tyrosine-phosphorylation-regulated kinase 1A (Rattus norvegicus, UniProt Q63470); experiment: Inhibition of recombinant 6His-tagged rat DYRK1A (1 to 502 residues) expressed in Escherichia coli BL21 (DE3) cells using KISGRLSPIMTEQ as substrate incubated for 30 mins in presence of ATP by absorbance based assay
[3] = biological target: Mitogen-activated protein kinase 3 (Homo sapiens) (UniProt P27361); experiment: Inhibition of ERK1 (unknown origin) at 0.5 uM
Chain of Mitogen-activated protein kinase 3 (Homo sapiens) (P27361 whole entry): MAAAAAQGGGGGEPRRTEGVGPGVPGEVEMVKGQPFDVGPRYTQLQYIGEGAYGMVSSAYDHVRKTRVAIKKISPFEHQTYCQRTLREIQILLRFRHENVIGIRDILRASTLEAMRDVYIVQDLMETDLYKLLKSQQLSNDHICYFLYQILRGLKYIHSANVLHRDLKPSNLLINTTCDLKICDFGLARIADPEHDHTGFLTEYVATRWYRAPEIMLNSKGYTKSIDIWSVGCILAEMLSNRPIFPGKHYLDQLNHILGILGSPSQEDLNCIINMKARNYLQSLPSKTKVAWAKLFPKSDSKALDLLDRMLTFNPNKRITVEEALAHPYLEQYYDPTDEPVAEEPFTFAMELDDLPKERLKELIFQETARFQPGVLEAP

[4] = biological target: Mitogen-activated protein kinase 1 (Homo sapiens) (UniProt P28482); experiment: Inhibition of ERK2 (unknown origin) at 0.5 uM
Chain of Mitogen-activated protein kinase 1 (Homo sapiens) (P28482 whole entry): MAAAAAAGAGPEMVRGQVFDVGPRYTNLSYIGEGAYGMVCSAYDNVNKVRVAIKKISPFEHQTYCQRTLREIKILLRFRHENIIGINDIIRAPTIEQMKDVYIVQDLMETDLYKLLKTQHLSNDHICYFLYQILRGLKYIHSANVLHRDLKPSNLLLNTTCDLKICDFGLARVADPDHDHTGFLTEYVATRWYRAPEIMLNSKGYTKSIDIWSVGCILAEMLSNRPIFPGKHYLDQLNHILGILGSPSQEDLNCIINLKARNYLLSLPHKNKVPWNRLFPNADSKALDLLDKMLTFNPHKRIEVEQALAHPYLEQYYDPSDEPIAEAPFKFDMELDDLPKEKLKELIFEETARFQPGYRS

[5] = biological target: Glycogen synthase kinase-3 beta (Homo sapiens) (UniProt P49841); experiment: Inhibition of GSK3beta (unknown origin) at 0.5 uM
Chain of Glycogen synthase kinase-3 beta (Homo sapiens) (P49841 whole entry, looked up): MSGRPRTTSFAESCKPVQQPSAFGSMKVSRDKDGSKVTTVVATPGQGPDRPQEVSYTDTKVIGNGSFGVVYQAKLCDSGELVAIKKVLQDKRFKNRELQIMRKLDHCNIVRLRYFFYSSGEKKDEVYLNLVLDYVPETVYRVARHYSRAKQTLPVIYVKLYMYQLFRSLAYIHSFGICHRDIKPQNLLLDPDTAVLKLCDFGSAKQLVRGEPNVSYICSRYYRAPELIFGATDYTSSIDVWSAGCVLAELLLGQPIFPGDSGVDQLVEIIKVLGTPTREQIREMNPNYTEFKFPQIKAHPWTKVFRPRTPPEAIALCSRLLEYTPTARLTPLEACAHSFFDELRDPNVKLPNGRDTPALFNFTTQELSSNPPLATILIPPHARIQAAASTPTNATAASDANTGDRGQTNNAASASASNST

[6] = biological target: Tyrosine-protein kinase Fyn (Homo sapiens) (UniProt P06241); experiment: Inhibition of FYN (unknown origin) at 0.5 uM
Chain of Tyrosine-protein kinase Fyn (Homo sapiens) (P06241 2-537 limits assumed): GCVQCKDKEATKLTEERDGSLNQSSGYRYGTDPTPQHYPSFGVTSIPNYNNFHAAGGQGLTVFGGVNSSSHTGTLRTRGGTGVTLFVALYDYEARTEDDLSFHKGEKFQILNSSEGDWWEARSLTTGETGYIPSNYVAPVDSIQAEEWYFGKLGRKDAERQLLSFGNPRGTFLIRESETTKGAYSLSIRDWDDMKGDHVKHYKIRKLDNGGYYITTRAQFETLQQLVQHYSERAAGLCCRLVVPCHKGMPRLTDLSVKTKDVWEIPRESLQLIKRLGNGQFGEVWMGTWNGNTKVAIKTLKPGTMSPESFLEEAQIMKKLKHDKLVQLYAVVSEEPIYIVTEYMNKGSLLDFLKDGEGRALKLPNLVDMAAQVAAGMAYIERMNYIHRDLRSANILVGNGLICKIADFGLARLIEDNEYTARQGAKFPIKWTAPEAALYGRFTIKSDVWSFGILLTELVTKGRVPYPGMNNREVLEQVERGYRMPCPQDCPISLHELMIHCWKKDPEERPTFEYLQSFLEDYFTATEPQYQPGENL

Homo sapiens = organism: Homo sapiens; experiment: Inhibition of PI3K (unknown origin) at 0.5 uM
[7] = Stability in human plasma at 1 uM incubated for 120 mins by LC-MS/MS analysis; type: ADME, cell-free; details: 2 h
Mus musculus [8] = experiment: In vivo inhibition of DYRK1A in C57BL/6J mouse model carrying murine BACtgDyrk1a assessed as decrease in phosphorylated ERK to ERK ratio in brain administered intraperitoneally and measured after 24 hrs; type: functional; details: route ip
[9] = Drug concentration in brain of Dp1Yey C57BL/6J mouse model at 50 mg/kg by UHPLC-MS/MS analysis; type: ADME, organism-based; details: in vivo, read-out: Ct
[10] = Drug concentration in wildtype mouse brain at 50 mg/kg by UHPLC-MS/MS analysis; type: ADME, organism-based; details: in vivo, read-out: Ct
Mus musculus [11] = experiment: Effect on spatial working memory in Dp1Yey C57BL/6J mouse model assessed as reduction in total distance travelled at 40 mg/kg, po administered 5 days per week for 2 months by Y-maze test; type: functional, organism-based
Mus musculus [12] = experiment: Effect on spatial working memory in Dp1Yey C57BL/6J mouse model assessed as reduction in mean speed at 40 mg/kg, po administered 5 days per week for 2 months by Y-maze test; type: functional, organism-based
Mus musculus [13] = experiment: Effect on spatial working memory in Dp1Yey C57BL/6J mouse model assessed as reduction in time spent in center at 40 mg/kg, po administered 5 days per week for 2 months by Y-maze test; type: functional, organism-based
Mus musculus [14] = experiment: Cognitive enhancing effect in Dp1Yey C57BL/6J mouse model assessed as increase in percentage of spontaneous alternation at 40 mg/kg, po administered 5 days per week for 2 months by Y-maze test; type: functional, organism-based

Compound: Oc1ccc(-c2cnc3[nH]cc(-c4ccc(F)cc4)c3c2)cc1O
IC50 [2]: 20 nM

Compound: COc1cc2c(c(OC)c1)CN(C(=O)c1ccccc1)C(C1CCCCC1)C2 (stereo not given)
IC50 [1]: > 20 µM

Compound: O=C(O[C@@H]1Cc2c(O)cc(O)cc2O[C@@H]1c1cc(O)c(O)c(O)c1)c1cc(O)c(O)c(O)c1 [EPIGALOCATECHIN GALLATE]
IC50 [1]: 0.2 µM

Compound: O=C(c1cc(O)c(O)c(O)c1)N1Cc2c(O)cc(O)cc2CC1c1cc(O)c(O)c(O)c1 (stereo not given)
inhibition [3]: inactive
inhibition [4]: inactive
inhibition [5]: inactive
inhibition [6]: Active
inhibition (Homo sapiens): Active
Stability [7]: Stable
inhibition (Mus musculus [8]): Active
concentration [9]: 27.6 nM
concentration [10]: 38.2 nM
Activity (Mus musculus [11]): inactive
Activity (Mus musculus [12]): inactive
Activity (Mus musculus [13]): inactive
Activity (Mus musculus [14]): Active

Compound: Oc1cc(O)c2c(c1)CC(C1CCCCC1)NC2 (stereo not given)
IC50 [1]: > 20 µM

Compound: Oc1cc(O)c2c(c1)CC(c1ccccc1)NC2 (stereo not given)
IC50 [1]: > 20 µM

Compound: COc1cc2c(c(OC)c1)CN(C(=O)c1ccccc1)C(c1cc(OC)c(OC)c(OC)c1)C2 (stereo not given)
IC50 [1]: > 20 µM

Compound: COc1ccc(C(=O)N2Cc3c(cc(OC)cc3OC)CC2C2CCCCC2)cc1 (stereo not given)
IC50 [1]: > 20 µM

Compound: COc1cccc(C(=O)N2Cc3c(cc(OC)cc3OC)CC2c2cc(OC)c(OC)c(OC)c2)c1 (stereo not given)
IC50 [1]: > 20 µM

The next lines start with the values.

IC50 [1]: > 20 µM
Compound: COc1cc2c(c(OC)c1)CNC(C1CCCCC1)C2 (stereo not given)

IC50 [1]: > 20 µM
Compound: O=C(c1ccc(O)cc1)N1Cc2c(O)cc(O)cc2CC1C1CCCCC1 (stereo not given)

IC50 [1]: > 20 µM
Compound: COc1cc2c(c(OC)c1)CNC(c1ccccc1)C2 (stereo not given)

IC50 [1]: > 20 µM
Compound: O=C(c1ccccc1)N1Cc2c(O)cc(O)cc2CC1C1CCCCC1 (stereo not given)
